pIC50, pKi: −log10 of the molar value.
How the values were obtained:
Human whole blood = assay: Whole blood assay for IL-1β production; assay type: cell-based; details: LPS 5.0 ng/ml, 16-18 hr at 30° C.
Protocol: The whole blood assay is a simple method for measuring the production of IL-1β (or other cytokines) and the activity of potential inhibitors. The complexity of this assay system, with its full complement of lymphoid and inflammatory cell types, spectrum of plasma proteins and red blood cells is an ideal in vitro representation of human in vivo physiologic conditions.
Human whole blood sample (^˜30-50 cc) 1.5 ml Eppendorf tubes
Set incubator or water bath at 30°C. Aliquot 0.25 ml of blood into 1.5 ml Eppendorf tubes. Note: be Sure to invert the whole blood sample tubes after every two aliquots. Differences in replicates may result if is the cells sediment and are not uniformly suspended. Use of a positive displacement pipette will also minimize differences between replicate aliquots.
Prepare drug dilutions in sterile pyrogen-free saline by serial dilution. A dilution series which brackets the apparent Ki for a test compound determined in an ICE inhibition assay is generally used for the primary compound screen. For extremely hydrophobic compounds, prepare compound dilutions in fresh plasma obtained from the same blood donor or in PBS-containing 5% DMSO to enhance solubility.
Add 25 μl test compound dilution or vehicle control and gently mix the sample. Then add 5.0 μl LPS solution (250 ng/ml stocked prepared fresh: 5.0 ng/ml final concentration LPS), and mix again. Incubate the tubes at […] in a water bath for 16-18 hr with occasional mixing. Alternatively, the tubes can be placed in a rotator set at 4 rpm for the same incubation period. This assay should be set up in duplicate or triplicate with the following controls: negative control—no LPS; positive control—no test inhibitor; vehicle control—the highest concentration of DMSO or compound solvent used in the experiment. Additional saline is added to all control tubes to normalize volumes for both control and experimental whole blood test samples.
After the incubation period, whole blood samples are centrifuged for 10 minutes at ^˜2000 rpm in the microfuge, plasma is transferred to a fresh microfuge tube and centrifuged at 1000×g to pellet residual platelets if necessary. Plasma samples may be stored frozen at −70° C. prior to assay for cytokine levels by ELISA.
R & D Systems (6.14 McKinley Place N.E. Minneapolis, Minn. 55413) Quantikine kits may be used for measurement of IL-1β and TNF-α. The assays are performed according to the manufacturer's directions. IL-1β levels of ^˜1-5 ng/ml in positive controls among a range of individuals may be observed. A 1:200 dilution of plasma for all samples is usually sufficient for experiments for ELISA results to fall on the linear range of the ELISA standard curves. It may be necessary to optimize standard dilutions if you observe differences in the whole blood assay. Nerad, J. L. et al., J. Leukocyte Biol., 52, pp. 687-692 (1992).

[1] = system: Human Peripheral Blood Mononuclear Cells (PBMC); assay: PBMC cell assay: IL-1β assay with LPS-stimulated human PBMC; assay type: cell-based; details: mature IL-1β in supernatant, LPS 5 ng/ml, 16-18 hr
Excerpt: IL-1β Assay with a Mixed Population of Human Peripheral Blood Mononuclear Cells (PBMC) or Enriched Adherent Mononuclear Cells
Processing of pre-IL-1β by ICE can be measured in cell culture using a variety of cell sources. Human PBMC obtained from healthy donors provides a mixed population of lymphocyte subtypes and mononuclear cells that produce a spectrum of interleukins and cytokines in response to many classes of physiological stimulators. Adherent mononuclear cells from PBMC provides an enriched source of normal monocytes for selective studies of cytokine production by activated cells.
An initial dilution series of test compound in DMSO or ethanol is prepared, with a subsequent dilution into RPMI-10% FBS media (containing 2 mM L-glutamine, 10 mM HEPES, 50 U and 50 μg/ml pen/strep) respectively to yield drugs at 4×the final test concentration containing 0.4% DMSO or 0.4% ethanol. The final concentration of DMSO is 0.1% for all drug dilutions. A concentration titration which brackets the apparent Ki for a test compound determined in an ICE inhibition assay is generally used for the primary compound screen.
Generally 5-6 compound dilutions are tested and the cellular component of the assay is performed in duplicate, with duplicate ELISA determinations on each cell culture supernatant.
Buffy coat cells isolated from one pint human blood (yielding 40-45 ml final volume plasma plus cells) are diluted with media to 80 ml and LeukoPREP separation tubes (Becton Dickinson) are each overlaid with 10 ml of cell suspension. After 15 min centrifugation at 1500-1800×g, the plasma/media layer is aspirated and then the mononuclear cell layer is collected with a Pasteur pipette and transferred to a 15 ml conical centrifuge tube (Corning). Media is added to bring the volume to 15 ml, gently mix the cells by inversion and centrifuge at 300×g for 15 min. The PBMC pellet is resuspended in a small volume of media, the cells are counted and adjusted to 6×10^6 cells/ml.
For the cellular assay, 1.0 ml of the cell suspension is added to each well of a 24-well flat bottom tissue culture plate (Corning), 0.5 ml test compound dilution and 0.5 ml LPS solution (Sigma #L-3012; 20 ng/ml solution prepared in complete RPMI media; final LPS concentration 5 ng/ml). The 0.5 ml additions of test compound and LPS are usually sufficient to mix the contents of the wells. Three control mixtures are run per experiment, with either LPS alone, solvent vehicle control, and/or additional media to adjust the final culture volume to 2.0 ml. The cell cultures are incubated for 16-18 hr at 37° C. in the presence of 5% CO2.
At the end of the incubation period, cells are harvested and transferred to 15 ml conical centrifuge tubes. After centrifugation for 10 min at 200×g, supernatants are harvested and transferred to 1.5 ml Eppendorf tubes. It may be noted that the cell pellet may be utilized for a biochemical evaluation of pre-IL-1β and/or mature IL-1β content in cytosol extracts by Western blotting or ELISA with pre-IL-1β specific antisera.
PBMC are isolated and prepared as described above. Media (1.0 ml) is first added to wells followed by 0.5 ml of the PBMC suspension. After a one hour incubation, plates are gently shaken and nonadherent cells aspirated from each well. Wells are then gently washed three times with 1.0 ml of media and final resuspended in 1.0 ml media. The enrichment for adherent cells generally yields 2.5-3.0×10^5 cells per well. […]

ICE Caspase-1 = molecular target: T1, ICE Caspase-1 (Homo sapiens, UniProt P29466); assay: ICE (Caspase-1) enzyme inhibition assay, Ki; assay type: biochemical; details: in vitro enzyme assay
T1 sequence (P29466 120-297 limits assumed): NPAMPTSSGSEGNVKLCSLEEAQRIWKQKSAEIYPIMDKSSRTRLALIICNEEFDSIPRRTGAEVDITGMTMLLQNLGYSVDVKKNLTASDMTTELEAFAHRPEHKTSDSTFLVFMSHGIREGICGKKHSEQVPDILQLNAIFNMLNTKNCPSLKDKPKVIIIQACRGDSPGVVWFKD
T1 sequence (P29466 317-404 limits assumed): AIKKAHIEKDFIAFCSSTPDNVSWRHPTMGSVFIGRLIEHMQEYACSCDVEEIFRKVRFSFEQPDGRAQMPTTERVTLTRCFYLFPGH
Protocol: This assay is run using an Succinyl-Tyr-Val-Ala-Asp-p-Nitroanilide substrate. Synthesis of analogous substrates is described by L. A. Reiter (Int. J. Peptide Protein Res., 43, pp. 87-96 (1994)). The assay mixture contains:
The visible ICE assay is run in a 96-well microtiter plate. Buffer, ICE and DMSO (if inhibitor is present) are added to the wells in the order listed. The components are left to incubate at room temperature for 15 minutes starting at the time that all components are present in all wells. The microtiter plate reader is set to incubate at 37° C. After the 15 minute incubation, substrate is added directly to the wells and the reaction is monitored by following the release of the chromophore (pNA) at 405-603 nm at 37° C. for 20 minutes. A linear fit of the data is performed and the rate is calculated in mOD/min. DMSO is only present during experiments involving inhibitors, buffer is used to make up the volume to 100 μl in the other experiments.
This assay is run essentially according to Thornberry et al., Nature, 356 pp. 768-774 (1992), using substrate 17 referenced in that article. The substrate is: Acetyl-Tyr-Val-Ala-Asp-amino-4-methylcoumarin (AMC). The following components are mixed:
The assay is run in a 96-well microtiter plate. Buffer and ICE are added to the wells. The components are left to incubate at 37° C. for 15 minutes in a temperature-controlled wellplate. After the 15 minute incubation, the reaction is started by adding substrate directly to the wells and the reaction is monitored at 37° C. for 30 minutes by following the release of the AMC fluorophore using an excitation wavelength for 380 nm and an emission wavelength of 460 nm. A linear fit of the data for each well is performed and a rate is determined in fluorescence units per second.
(§1) For determination of enzyme inhibition constants (Ki) or the mode of inhibition (competitive, uncompetitive or noncompetitive), the rate data determined in the enzyme assays at varying inhibitor concentrations are computer-fit to standard enzyme kinetic equations (see I. H. Segel, Enzyme Kinetics, Wiley-Interscience, 1975).

Flice Caspase-8 = Flice Caspase-8 (Homo sapiens, UniProt Q14790); assay: Flice (Caspase-8) enzyme inhibition, Ki; assay type: biochemical; details: in vitro enzyme assay
Sequence of Flice Caspase-8 (Q14790 217-374 limits assumed): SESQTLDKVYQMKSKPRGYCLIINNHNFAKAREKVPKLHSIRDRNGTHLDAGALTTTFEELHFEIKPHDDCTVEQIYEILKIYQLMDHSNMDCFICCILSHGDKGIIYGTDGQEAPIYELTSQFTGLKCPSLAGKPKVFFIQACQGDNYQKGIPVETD
Sequence of Flice Caspase-8 (Q14790 385-479 limits assumed): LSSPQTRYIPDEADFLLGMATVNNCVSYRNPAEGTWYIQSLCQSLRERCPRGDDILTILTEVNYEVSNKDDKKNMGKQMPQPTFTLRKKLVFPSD
Excerpt: (§2) Other assays that may be used to evaluate the compounds of this invention are disclosed in PCT application PCT/US96/20843, published Jun. 26, 1997, under publication no. WO 97/22619, which is incorporated herein by reference. Such assays include in vivo bioavailability determinations, pharmacokinetic studies in the mouse, inhibition of ICE homologs, inhibition of apoptosis, in vivo acute assay for anti-inflammatory efficacy, measurement of blood levels, IGIF assays, mouse carrageenan peritoneal inflammation assay, and type II collagen-induced arthritis.
as §1

CPP32 Caspase-3 = molecular target: T2, CPP32 Caspase-3 (Homo sapiens, UniProt P42574); assay: CPP32 (Caspase-3) enzyme inhibition, Ki; assay type: biochemical; details: in vitro enzyme assay
T2 sequence (P42574 29-175 limits assumed): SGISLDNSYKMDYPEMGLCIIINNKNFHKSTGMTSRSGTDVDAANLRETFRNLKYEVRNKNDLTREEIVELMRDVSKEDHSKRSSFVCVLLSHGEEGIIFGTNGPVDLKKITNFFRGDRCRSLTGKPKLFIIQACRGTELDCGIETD
T2 sequence (P42574 176-277 limits assumed): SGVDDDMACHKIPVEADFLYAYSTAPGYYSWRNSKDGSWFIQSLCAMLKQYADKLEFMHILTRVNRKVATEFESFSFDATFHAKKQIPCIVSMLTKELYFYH
Excerpt: as §2, §1

Compound CC(C(=O)N[C@H](C=O)CC(=O)O)N1C(=O)[C@@H](NC(=O)c2cc(Cl)c(O)c(Cl)c2)CCC(=O)N1C (mixture of isomers) [Compound 20, 3-{2-[6-(3,5-Dichloro-4-hydroxy-benzoylamino)-2-methyl-3,7-dioxo-[1,2]diazepan-1-yl]-propionylamino}-4-oxo-butyric acid] has a pIC50 (Human whole blood) of 6.08, a pIC50 [1] of 6.27 and a pKi (ICE Caspase-1) of 9.05.

O=C[C@H](CC(=O)O)NC(=O)CN1C(=O)[C@@H](NC(=O)c2nccc3ccccc23)CCC(=O)N1Cc1ccccc1 [Compound 11a, 3-(2-{2-Benzyl-6-[(isoquinoline-1-carbonyl)-amino]-3,7-dioxo-[1,2]diazepan-1-yl}-acetylamino)-4-oxo-butyric acid] was tested, and the pIC50 (Human whole blood) was 5.14, the pIC50 [1] was 5.85 and the pKi (ICE Caspase-1) was 7.00.

Compound CCCN1C(=O)CC[C@H](NC(=O)c2nccc3ccccc23)C(=O)N1CC(=O)N[C@H](C=O)CC(=O)O [Compound 11b, 3-(2-(6-[(Isoquinoline-1-carbonyl)-amino]-3,7-dioxo-2-propyl-[1,2]diazepan-1-yl)-acetylamino)-4-oxo-butyric acid] has a pIC50 (Human whole blood) of 5.24, a pIC50 [1] of 5.82 and a pKi (ICE Caspase-1) of 6.92.

CCCN1C(=O)CC[C@H](NC(=O)c2cc(Cl)c(O)c(Cl)c2)C(=O)N1CC(=O)N[C@H](C=O)CC(=O)O [Compound 11c, 3-{2-[6-(3,5-Dichloro-4-hydroxy-benzoylamino)-3,7-dioxo-2-propyl-[1,2]diazepan-1-yl]-acetylamino}-4-oxo-butyric acid] showed a pIC50 (Human whole blood) of 5.84, a pIC50 [1] of 6.38 and a pKi (ICE Caspase-1) of 7.80. For the same compound, the pKi (Flice Caspase-8) was 5.82 and the pKi (CPP32 Caspase-3) was 4.65.

Compound CS(=O)(=O)N1CCC[C@H](NC(=O)c2cc(Cl)c(O)c(Cl)c2)C(=O)N1CC(=O)N[C@H](C=O)CC(=O)O [Compound 27, 3-{2-[6-(3,5-Dichloro-4-hydroxy-benzoylamino)-2-methanesulfonyl-7-oxo-[1,2]diazepan-1-yl]-acetylamino}-4-oxo-butyric acid] has a pIC50 (Human whole blood) of 5.72, a pIC50 [1] of 6.00 and a pKi (ICE Caspase-1) of 7.77.

Source: patent US6426413B1, “Inhibitors of caspases” (Vertex Pharmaceuticals Incorporated, priority 1998, dated 2002)
